The text below walks through data of patent US9023876B2, “Compounds and methods for regulating integrins” (Adhaere Pharmaceuticals, Inc., priority 2010, dated 2015).

Experiment [1] relates to WT mouse macrophages and neutrophils. Description: Secretion of pro-inflammatory cytokines by stimulated WT mouse macrophages and neutrophils. The note with it: cells stimulated with LPS, TNFalpha or ILbeta. The format is cell-based. An excerpt:
We surmised that leukadherins may also suppress pro-inflammatory cytokine express-ion in leukocytes. […] In an experiment to test the effect of leukadherin treatment on secretion of pro-inflammatory cytokines by leukocytes, we stimulated WT mouse macrophages and neutrophils with LPS, TNFalpha or ILbeta in the absence or presence of two different concentrations of agonist LA1 and measured levels of pro-inflammatory cytokine in the cell supernatant. […] Leukadherins decrease secretion of pro-inflammatory factors, including microparticles, by beta2-integrin expressing cells. Additionally, they increase secretion of anti-inflammatory factors, such as IL-10.

For experiment [2], the target named is T1, CD11b A-domain (αA-domain) (Homo sapiens, UniProt P11215).
T1 construct: protein fragments spanning residues Gly^111-Gly^321 (321WT); made in house; host or cells: Escherichia coli
Briefly: αA-domain ligand-binding assay (GST-αA-domain to immobilized Fg). The note with it: to level of activating mutant I316G. An excerpt:
Purification of recombinant CD11b A-Domain (.Alpha.A-Domain). Recombinant human aA-domains were constructed and purified according to published protocols. […] The aA-domain in its active conformation was generated by replacing Ile^316 with Gly (1316G [55]) using forward primer 5′-[…]-3′ (SEQ ID NO: 3) and reverse primer 5′-[…]-3′ (SEQ ID NO: 4). The insert was digested with BamHI and SmaI and ligated into pGEX-2T vector also digested with BamHI and SmaI. All constructs were confirmed by direct DNA sequencing. All recombinant proteins were expressed as glutathione S-transferase (GST) fusion proteins in Escherichia coli and purified by affinity chromatography (Glutathione-beads, Sigma) following manufacturer's instructions. Purified protein preparations were dialyzed against 20 mm Tris-HCl, pH 7.5, 150 mm NaCl (Tris-buffered saline) and subsequently concentrated using Amicon-10 columns (Millipore) and stored at −80° C. […]
Maxisorp 96-well plates were coated with Fg (1 μg/well) in 10 mM PBS, pH 7.4 overnight and blocked with 1% bovine serum albumin in PBS. […] Subsequently, the amount of bound protein was determined by incubating with anti-GST antibody conjugated to horseradish peroxidase (GE, Piscataway, N.J.) (1:2000 dilution) for 1 hr. […] Absorbance was read using Spectromax M5 spectrophotometer (Molecular Devices, Sunnyvale, Calif.). […]

For the next experiment, the system named is Fischer 344 rats. Description: Balloon induced arterial injury in rats. The format is in vivo, rat. From the text: All surgeries were under isoflurane anaesthesia (Baxter, Ill., USA). Balloon injury in the right iliac artery was inflicted with a 2F Fogarty catheter (Baxter Corp., Irvine, Calif., USA) adapted to a custom angiographic kit (Boston Scientific, Scimed). An aortotomy in the abdominal aorta was made to insert a 2F Fogarty embolectomy catheter to the level of the right iliac artery. The balloon was inflated to 1.5-1.6 atmospheres and retracted to the arteriotomy site three times. The aortic excision was repaired with 8.0 sutures. The abdominal cavity was closed by planes using interrupted suture pattern. Arterial specimens were collected 3-30 days after injury and fixed in 4% formalin-PBS (Sigma-Aldrich, St. Louis, Mo.) for 5 min and analyzed by histology and immunostaining
Elastica van Gieson staining was used for histochemical analyses to evaluate neointima formation. Morphometric analyses was performed in a blinded fashion using NIH ImageJ. Immunostaining with anti-rat CD68 (1:50, AbD Serotec) for the detection of macrophages in the tissue.
Leukocyte recruitment precedes neointimal thickening and restenosis following percutaneous transluminal coronary angioplasty (PTCA). […]

The next experiment relates to B6 male mice. Description: Renal I/R injury in mice. As to conditions: given 30 min prior to I/R injury, 24 h post-ischemia, vs DMSO; not shown. The format is in vivo, mouse. The procedure:
Leukadherins reduce renal I/R injury. To evaluate use of leukadherins in the I/R injury induced changes in the kidney function of WT mice, we performed another experiment. B6 male mice (8-12 weeks of age) were anesthetized and kept on a heating pad to keep them at a constant 37° C. temperature. Next, an abdominal incision was made and the renal pedicles were occluded bilaterally with a nontraumatic vascular clamp for 30 minutes, the clamp then removed and the surgical incision was closed. Sham surgery was performed with an identical procedure but without application of the clamps. Renal I/R injury was assessed at 24 h post-ischemia by measuring the serum creatinine levels. Mouse sera from the tail incision was used for the analyses of sCr (and BUN levels (not shown)) using manual kits (Stanbio Laboratory).

SMILES strings stand for the structures.

T1 sequence (P11215 127-337): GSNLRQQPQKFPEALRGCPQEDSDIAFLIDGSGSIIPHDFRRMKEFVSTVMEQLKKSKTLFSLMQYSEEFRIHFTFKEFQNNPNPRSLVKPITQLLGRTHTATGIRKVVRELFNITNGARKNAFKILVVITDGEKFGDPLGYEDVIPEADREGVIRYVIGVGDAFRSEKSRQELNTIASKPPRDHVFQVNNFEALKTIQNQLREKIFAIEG

As to `O=C(O)c1ccc(-c2ccc(/C=C3\SC(=S)N(Cc4ccccc4)C3=O)o2)cc1` [LA1], in experiment [1], the “secretion of inflammatory factors (IL-6, TNFa, IL-1b, IFNg, MMP-9, soluble uPAR) in supernatant” value is recorded as “significantly decreased”. For the same molecule, the “binding of the WT αA to the immobilized ligand” value in experiment [2] is listed as “increased binding”. Besides, the “neointima to media ratio” value in the experiment with Fischer 344 rats (rat arteries 21 days after balloon injury, vehicle 0.23±0.01) came out at 0.16±0.02. Moreover, the “number of medial macrophages (CD68)” value with Fischer 344 rats (rat arteries three days post-injury, vehicle 42.2±6.7) worked out at 17.7±3.1. Moreover, in the experiment on B6 male mice, the “serum creatinine (sCr) levels” value was “significant reduction”.
